Experimental data published in patent publication US6602664B2 (priority 1998, dated 2003).
Several values for one entry are separate records, joined by “and”; a condition that tells them apart may be missing. Identical values can stand only once. Like-named read-outs stand apart in the source and are kept apart here.

Experiments:
Format in all cases: cell-based
[1] = system: drug-resistant HIV-1 in MT-4; experiment: microbe, parasite or virus in culture
[2] = system: drug-resistant HIV-1 in PBMC; experiment: microbe, parasite or virus in culture; details: PBMC; for EC50: Human immunodeficiency virus 1, PBMC
[3] = system: HIV-1 replication in human PBM cells; experiment: microbe, parasite or virus in culture
Procedure: Cells and viruses. […] Antimicrobial Agents Chemother 1992;36(11): 2423-2431.
Cell pellets were washed, centrifuged, lysed and the proviral DNA extracted as previously described. Cytotoxicity of the compounds was determined using the Promega Cell Titer 96 dye uptake assay (Madison, Wis.) in 1-2 day PHA-stimulated PBM cells after 5 days in culture. The median effective concentration (EC50) and inhibitory concentration (IC50) were derived from the computer-generated median effect plot of the dose-effect data, as described previously.

[4] = system: recombinant HIV-1 virus isolates
From the text: The aim of the study was to determine the potency of the inhibitory effect of a new generation of NRTIs on Multi Drug Resistant isolates and to compare it with their effect on wild-type HIV-1 isolates. All recombinant viruses were taken from the VIRCO repository of phenotypically and genotypically characterized virus isolates. Hirsch et al. Antiretroviral Drug Resistance Testing in Adults with HIV Infection. JAMA; 1998: 79(24) 1984-1991. See also Pauwels et al. Comprehensive HIV drug Resistance monitoring using rapid, high-throughput phenotypic and genotypic assays with correlative data analysis. Antiviral Therapy, 1998: 3: 35 Abstract 51.
Phenotypic drug susceptibility determination of recombinant virus isolates is described in Hertogs et al. A Rapid Method for Simultaneous Detection of Phentypic Resistance to Inhibitors of Protease and Reverse Transcriptase in Recombinant HIV-1 Isolates from Patients Treated with Antiretroviral Drugs. Antimicrob. Agents Chemother. 1998; 42(2): 269-276. The basic principle of the Antivirogram® technology is the construction of chimeric HIV-1 strains composed of the protease (PR) and reverse transcriptase (RT) gene sequences which are isolated and amplified from patient viral RNA. Amplicons are subsequently transfected into CD4+T cells together with a standard laboratory isogenic (HXB2) HIV-1 DNA construct from which the PR/RT gene sequences were deleted. After homologous recombination, new viruses whose diversity reflects the original population amplified from the plasma are produced at high level from these cells.
The virus infectivity (CCID50) is determined by an end-point dilution method. The titer is calculated from the degree of infection, measured by the intensity of reporter-gene signal as generated by serial dilutions of the virus shock. The chimeric (clinical isolates and wild-type reference) viruses are then analyzed for their phenotypic sensitivity (i.e. susceptibility) to the different PR and RT-inhibitors in an automated reporter gene-based assay using serial dilutions of the compound. The standardisation of the Antivirogram®n assay allows for simultaneous testing of all clinically approved drugs in one 384-well microtiter plate. The experimental drugs are included in separate plates. Each plate contains multiple replicates of mock-infected wells, virus-infection control wells and blank (medium-only) well. All plates are tested in duplicate. 50% Inhibitory concentrations are calculated based on reporter signals obtained through optical reading of 384-well plates containing serial dilutions of compounds, a normalised quantity of virus and by taking into account all relevant control wells. Approval (or not) is done according to critical ranges and settings as described in the corresponding VIRCO Standard Operating Procedure.
A more detailed description of the protocol is as follows. Samples were stored frozen. […] To confirm the genotypic pattern, genotyping (ABI-sequencing) was performed after recombination and culture of the laboratory strains by analysis of cell viability, calculation of results (dose-response curves, IC50 values), and reporting of data.

[5] = system: drug-resistant HIV-1 in HeLa HT4-6C; experiment: microbe, parasite or virus in culture; details: for EC50: Human immunodeficiency virus 1, HeLa
[6] = system: drug-resistant HIV-1 in MT-2; experiment: microbe, parasite or virus in culture; details: for Fold-resistance: MT-2
[7] = HIV-1 (A012D:M41L?/D67N/K70R/T215F/K219Q)
[8] = clinical isolate (pre) prior to long-term ZDV monotherapy, row HIV-1 (A012D), read-out: Untreated EC50
[9] = clinical isolate HIV-1 (A012D:M41L?/D67N/K70R/T215F/K219Q), read-out: Selected Varient EC50
[10] = Human immunodeficiency virus 1, PBMC, 144 h

SMILES: Cc1cn([C@H]2C[C@H](N=[N+]=[N-])[C@@H](CO)O2)c(=O)[nH]c1=O [AZT, 3′-azido-3′-deoxythymidine]
- Fold-resistance ([1]; HIV-1 (A-161)): 60
- Fold-resistance ([1]; HIV-1 (C-246)): 35
- Fold-resistance ([1]; HIV-1 (G-68)): 33
- Fold-resistance ([1]; HIV-1 (R-102)): 60
- Fold-resistance ([1]; HIV-1 (X-78)): 55
- EC50 ([1]; Human immunodeficiency virus 1, MT4, clinical isolate (pre) prior to long-term ZDV monotherapy, row HIV-1 (A-161), read-out: Untreated EC50): 20 nM
- EC50 ([1]; Human immunodeficiency virus 1, MT4, clinical isolate (pre) prior to long-term ZDV monotherapy, row HIV-1 (C-246), read-out: Untreated EC50): 20 nM
- EC50 ([1]; Human immunodeficiency virus 1, MT4, clinical isolate (pre) prior to long-term ZDV monotherapy, row HIV-1 (G-68), read-out: Untreated EC50): 20 nM
- EC50 ([1]; Human immunodeficiency virus 1, MT4, clinical isolate (pre) prior to long-term ZDV monotherapy, row HIV-1 (R-102), read-out: Untreated EC50): 20 nM
- EC50 ([1]; Human immunodeficiency virus 1, MT4, clinical isolate (pre) prior to long-term ZDV monotherapy, row HIV-1 (X-78), read-out: Untreated EC50): 20 nM
- EC50 ([1]; Human immunodeficiency virus 1, MT4, clinical isolate HIV-1 (A-161), long-term ZDV monotherapy, read-out: Selected Varient EC50): 1200 nM
- EC50 ([1]; Human immunodeficiency virus 1, MT4, clinical isolate HIV-1 (C-246), long-term ZDV monotherapy, read-out: Selected Varient EC50): 700 nM
- EC50 ([1]; Human immunodeficiency virus 1, MT4, clinical isolate HIV-1 (G-68), long-term ZDV monotherapy, read-out: Selected Varient EC50): 650 nM
- EC50 ([1]; Human immunodeficiency virus 1, MT4, clinical isolate HIV-1 (R-102), long-term ZDV monotherapy, read-out: Selected Varient EC50): 1200 nM
- EC50 ([1]; Human immunodeficiency virus 1, MT4, clinical isolate HIV-1 (X-78), long-term ZDV monotherapy, read-out: Selected Varient EC50): 1100 nM
- Fold-resistance ([2]; 1 (T215Y/M41L)): 11
- Fold-resistance ([2]; (M184V/T215Y)): 5.8
- Fold-resistance [2, 7]: 240
- Fold-resistance ([2]; HIV-1 (D67N/K70R/T215Y/K219Q)): 9
- Fold-resistance ([2]; HIV-1 (K65R)): 2
- Fold-resistance ([2]; HIV-1 (L74V)): 0.8
- Fold-resistance ([2]; HIV-1 (M184V)): 0.8
- Fold-resistance ([2]; HIV-1 (T215Y)): 2.5
- EC50 [2, 8]: 1 nM
- EC50 [2, 9]: 240 nM
- EC50 ([2]; molecular clone 1 (T215Y/M41L), read-out: Selected Varient EC50): 42 nM
- EC50 ([2]; molecular clone (M184V/T215Y), read-out: Selected Varient EC50): 23 nM
- EC50 ([2]; molecular clone HIV-1 (D67N/K70R/T215Y/K219Q), read-out: Selected Varient EC50): 36 nM
- EC50 ([2]; molecular clone HIV-1 (K65R), read-out: Selected Varient EC50): 8 nM
- EC50 ([2]; molecular clone HIV-1 (L74V), read-out: Selected Varient EC50): 3 nM
- EC50 ([2]; molecular clone HIV-1 (M184V), read-out: Selected Varient EC50): 3 nM
- EC50 ([2]; molecular clone HIV-1 (T215Y), read-out: Selected Varient EC50): 10 nM
- EC50 ([2]; parent strain HIV-1 (xxLAI), row 1 (T215Y/M41L), read-out: Untreated EC50): 4 nM
- EC50 ([2]; parent strain HIV-1 (xxLAI), row (M184V/T215Y), read-out: Untreated EC50): 4 nM
- EC50 ([2]; parent strain HIV-1 (xxLAI), row HIV-1 (D67N/K70R/T215Y/K219Q), read-out: Untreated EC50): 4 nM
- EC50 ([2]; parent strain HIV-1 (xxLAI), row HIV-1 (K65R), read-out: Untreated EC50): 4 nM
- EC50 ([2]; parent strain HIV-1 (xxLAI), row HIV-1 (L74V), read-out: Untreated EC50): 4 nM
- EC50 ([2]; parent strain HIV-1 (xxLAI), row HIV-1 (M184V), read-out: Untreated EC50): 4 nM
- EC50 ([2]; parent strain HIV-1 (xxLAI), row HIV-1 (T215Y), read-out: Untreated EC50): 4 nM
- EC90 [3]: 21 nM and 14 nM
- EC90 ([3]; Human immunodeficiency virus 1, PBMC): 13 nM
- inhibition at 0.1 µM [3, 10]: -12.9%
- inhibition at 1 µM [3, 10]: 67.6%
- inhibition at 10 µM [3, 10]: 83.2%
- inhibition at 100 µM [3, 10]: 98.2%
- fold Resistance ([4]; RT genotype D67D/N, K70R, M184V, G333E): 0.9
- fold Resistance ([4]; RT genotype D67N, K70R, K219Q/K, 181C/Y): 12
- fold Resistance ([4]; RT genotype K70R, K219Q): 5
- fold Resistance ([4]; RT genotype M41L, D67N, K70R, K103N, L210W, T215Y, K219N/K): >36
- fold Resistance ([4]; RT genotype M41L, L210L, T215Y, Y181C/Y, M184M/V): >36
- fold Resistance ([4]; RT genotype M41L, L210W, T215Y): 24
- fold Resistance ([4]; RT genotype M41L, T69S-V-T, L210W, T215Y, G333E): >65
- fold Resistance ([4]; RT genotype M41L, T215Y, M184V): 5.5
- fold Resistance ([4]; RT genotype T69G, Q151M, M184V/M): >65
- fold Resistance ([4]; RT genotype T69I, K70R, Q151M, M184V): >65
- fold Resistance ([4]; RT genotype T69S-E, M184I, T215Y): >65
- fold Resistance ([4]; RT genotype T215Y): 13.5
- fold Resistance ([4]; recombinant isolate, RT genotype K70R): 0.7
- Fold-resistance [5, 7]: 200
- Fold-resistance ([5]; HIV-1 (A018C:D67N/K70R/T215Y/K219Q)): 400
- Fold-resistance ([5]; HIV-1 (A036DD:M41L/D67N/K70R/T215Y)): 800
- Fold-resistance ([5]; HIV-1 (P022C:M41L?/D67N/K70R/T215F/K219Q)): 187
- Fold-resistance ([5]; HIV-1 (P026B:M41L?/D67N/K70R/T215Y)): 280
- EC50 [5, 8]: 10 nM
- EC50 ([5]; clinical isolate (pre) prior to long-term ZDV monotherapy, row HIV-1 (A018C), read-out: Untreated EC50): 10 nM
- EC50 ([5]; clinical isolate (pre) prior to long-term ZDV monotherapy, row HIV-1 (A036DD), read-out: Untreated EC50): 7 nM
- EC50 ([5]; clinical isolate (pre) prior to long-term ZDV monotherapy, row HIV-1 (P022C), read-out: Untreated EC50): 30 nM
- EC50 ([5]; clinical isolate (pre) prior to long-term ZDV monotherapy, row HIV-1 (P026B), read-out: Untreated EC50): 10 nM
- EC50 [5, 9]: 2000 nM
- EC50 ([5]; clinical isolate HIV-1 (A018C:D67N/K70R/T215Y/K219Q), read-out: Selected Varient EC50): 4000 nM
- EC50 ([5]; clinical isolate HIV-1 (A036DD:M41L/D67N/K70R/T215Y), read-out: Selected Varient EC50): 5500 nM
- EC50 ([5]; clinical isolate HIV-1 (P022C:M41L?/D67N/K70R/T215F/K219Q), read-out: Selected Varient EC50): 5600 nM
- EC50 ([5]; clinical isolate HIV-1 (P026B:M41L?/D67N/K70R/T215Y), read-out: Selected Varient EC50): 2800 nM
- Fold-resistance ([6]; HIV-1 (D67N/K70R/M184V/T215Y/K219Q)): 5
- Fold-resistance ([6]; HIV-1 (D67N/K70R/T215Y/K219Q)): 33
- Fold-resistance ([6]; HIV-1 (M41L/D67N/M184V/H208Y/L210W/R211K/L214F/T215Y)): >550
- Fold-resistance ([6]; HlV-1 (M184V)): 1.5
- EC50 ([6]; Human immunodeficiency virus 1, MT2, read-out: Untreated EC50): 6 nM
